From ChEMBL document CHEMBL4251631, “New antiglioma zwitterionic pronucleotides with an FdUMP framework” (Eur J Med Chem, 2018)

Assays:
U-87 MG = assay: Cytostatic activity against human U87MG cells assessed as reduction in cell viability after 48 hrs by MTT assay; type: functional, cell-based, U-87MG ATCC
U-118-MG = assay: Cytostatic activity against human U118MG cells assessed as reduction in cell viability after 48 hrs by MTT assay; type: functional, cell-based
T98G = assay: Cytostatic activity against human T98G cells assessed as reduction in cell viability after 48 hrs by MTT assay; type: functional, cell-based
MRC5 = assay: Cytostatic activity against human MRC5 cells assessed as reduction in cell viability after 48 hrs by MTT assay; type: functional, cell-based; conditions: MRC5, 48 h
[1] = Selectivity index, ratio of IC50 for human MRC5 cells to IC50 for human U118MG cells; type: toxicity; conditions: MRC5 cells and U118MG cells, read-out: Ratio IC50
HeLa = assay: Cytostatic activity against human HeLa cells assessed as reduction in cell viability after 48 hrs by MTT assay; type: functional, cell-based
[2] = Half life in RPMI/FBS cell culture media 9:1 (v/v) at 2 mM by HPLC analysis; type: physicochemical; conditions: cattle
Caco-2 = assay: Cytostatic activity against human Caco2 cells assessed as reduction in cell viability after 48 hrs by MTT assay; type: functional, cell-based; conditions: Caco-2, 48 h
[3] = Stability in RPMI cell culture media at 2 mM by HPLC analysis; type: physicochemical; conditions: 2000 µM
[4] = Selectivity index, ratio of IC50 for human MRC5 cells to IC50 for human T98G cells; type: toxicity; conditions: MRC5 cells and T98G cells, read-out: Ratio IC50
[5] = Selectivity index, ratio of IC50 for human MRC5 cells to IC50 for human U87MG cells; type: toxicity; conditions: MRC5 cells and U87MG cells, read-out: Ratio IC50
[6] = Half life in human serum at 2 mM by HPLC analysis; type: ADME, cell-free
T47D = assay: Cytostatic activity against human T47D cells assessed as reduction in cell viability after 48 hrs by MTT assay; type: functional, cell-based
[7] = Half life in RPMI/FBS cell culture media 9:1 (v/v) assessed as cumulative concentration of metabolites of known anticancer activity at 2 mM by HPLC analysis; type: ADME; conditions: 2000 µM

Row | IC50 (U-87 MG) [µM] | IC50 (HeLa) [µM] | half-life at 2000 µM [2] [h] | IC50 (Caco-2) [µM] | Stability [3] | half-life at 2000 µM [6] [h] | IC50 (T47D) [µM] | t1/2 [7] [h] | SMILES | IC50 (U-118-MG) [µM] | IC50 (T98G) [µM] | IC50 (MRC5) [µM] | selectivity ratio [1] | selectivity ratio [4] | selectivity ratio [5]
1 | > 200 | – | – | – | – | – | – | – | Oc1ccc[n+](Cc2ccccc2)c1 | > 200 | > 200 | > 200 | – | – | –
2 | > 500 | – | – | – | – | – | – | – | Oc1cccnc1 | > 500 | > 500 | > 500 | – | – | –
3 | 10.7 | 7.3 | 26 | 1.4 | Stable | 26.2 | 8.11 | – | O=c1[nH]c(=O)n([C@H]2C[C@H](O)[C@@H](COP(=O)(O)Oc3ccc4ncccc4c3)O2)cc1F | 7.07 | 1.9 | 1.3 | < 1 | < 1 | < 1
4 | 0.59 | 1.26 | 14.8 | 1.38 | Stable | 37.3 | 3.91 | – | C[n+]1cccc(OP(=O)([O-])OC[C@H]2O[C@@H](n3cc(F)c(=O)[nH]c3=O)C[C@@H]2OC(=O)c2ccccc2)c1 | 3.15 | 3.48 | 5.75 | 2 | 2 | 10
5 | 1.28 | 27.2 | > 120 | 15.7 | Stable | > 120 | 11.9 | – | C[N+]1(C)CCC(OP(=O)([O-])OC[C@H]2O[C@@H](n3cc(F)c(=O)[nH]c3=O)C[C@@H]2OC(=O)c2ccccc2)CC1 | 4.42 | 6.7 | 8.3 | 2 | 1 | 7
6 | 0.66 | 0.53 | 10.8 | 0.43 | Stable | 14.4 | 3.43 | – | O=C(O[C@H]1C[C@H](n2cc(F)c(=O)[nH]c2=O)O[C@@H]1COP(=O)([O-])Oc1ccc[n+](Cc2ccccc2)c1)c1ccccc1 | 1.47 | 2.6 | 38.5 | 26 | 15 | 58
7 | 6.73 | 40.1 | > 120 | 20.4 | Stable | > 120 | 26.7 | – | CCCCCCCCCc1ccc(OP(=O)(O)OC[C@H]2O[C@@H](n3cc(F)c(=O)[nH]c3=O)C[C@@H]2OC(=O)c2ccccc2)cc1 | 11 | 6.74 | 39.9 | 4 | 6 | 6
8 | 0.88 | 7.3 | 7.7 | 2.46 | Stable | 16.5 | 7.14 | – | O=C(O[C@H]1C[C@H](n2cc(F)c(=O)[nH]c2=O)O[C@@H]1COP(=O)(O)Oc1ccc2ncccc2c1)c1ccccc1 | 0.79 | 1.3 | 1.3 | 2 | 1 | 1
9 | > 200 | – | – | – | – | – | – | – | CCOC(=O)C[n+]1cccc2cc(O)ccc21 | > 200 | > 200 | 162 | – | – | –
10 | 0.53 | 0.6 | 2 | 28.9 | Stable | 5.9 | 21.6 | 15.6 | CCOC(=O)C[n+]1cccc2cc(OP(=O)([O-])OC[C@H]3O[C@@H](n4cc(F)c(=O)[nH]c4=O)C[C@@H]3OC(=O)c3ccccc3)ccc21 | 0.76 | 13 | 34.9 | 46 | 3 | 66
11 | 0.67 | 1.2 | 16.5 | 12.9 | Stable | 8.3 | 8.73 | – | CCCCCCCCCC[n+]1cccc(OP(=O)([O-])OC[C@H]2O[C@@H](n3cc(F)c(=O)[nH]c3=O)C[C@@H]2OC(=O)c2ccccc2)c1 | 0.32 | 0.4 | 14.1 | 44 | 35 | 21
12 | 0.61 | 1.5 | 54 | 11.7 | Stable | 96.3 | 33 | – | C[N+](C)(CCOP(=O)([O-])OC[C@H]1O[C@@H](n2cc(F)c(=O)[nH]c2=O)C[C@@H]1OC(=O)c1ccccc1)Cc1ccccc1 | 3.69 | 2 | 0.6 | < 1 | < 1 | 1
13 | 35.9 | > 80 | > 120 | > 80 | Stable | > 120 | > 80 | – | C[N+]1(Cc2ccccc2)C2CCC1CC(OP(=O)([O-])OC[C@H]1O[C@@H](n3cc(F)c(=O)[nH]c3=O)C[C@@H]1OC(=O)c1ccccc1)C2 (stereo not given in full) | 66.3 | 49.9 | 62.5 | 1 | 1 | 2
14 | > 200 | – | – | – | – | – | – | – | CCOC(=O)C[n+]1cccc(O)c1 | > 200 | > 200 | > 200 | – | – | –
15 | 0.58 | 6.1 | 1.1 | 2.62 | Stable | 1.4 | 12.7 | 8.6 | CCOC(=O)C[n+]1cccc(OP(=O)([O-])OC[C@H]2O[C@@H](n3cc(F)c(=O)[nH]c3=O)C[C@@H]2OC(=O)c2ccccc2)c1 | 1.54 | 1.6 | 8.6 | 6 | 5 | 15
16 | 0.8 | 5.86 | 6.6 | 1.02 | Stable | 5.1 | 6.88 | – | O=C(O[C@H]1C[C@H](n2cc(F)c(=O)[nH]c2=O)O[C@@H]1COP(=O)(O)Oc1ccccc1)c1ccccc1 | 0.97 | 0.81 | 1.27 | 1 | 2 | 2
17 | 158 | – | – | – | – | – | – | – | CCCCCCCCCC[n+]1cccc(O)c1 | 125 | 55.6 | 126 | – | – | –
18 | 1.79 | 3.6 | 20 | 8.12 | Stable | 116 | 39.6 | – | C[N+](C)(C)CCOP(=O)([O-])OC[C@H]1O[C@@H](n2cc(F)c(=O)[nH]c2=O)C[C@@H]1OC(=O)c1ccccc1 | 7.54 | 24.7 | 1.3 | < 1 | < 1 | < 1
19 | 0.71 | 6.9 | 6.7 | 2.5 | Stable | 17.8 | 14.4 | – | O=C(O[C@H]1C[C@H](n2cc(F)c(=O)[nH]c2=O)O[C@@H]1COP(=O)(O)Oc1cccnc1)c1ccccc1 | 0.92 | 1.3 | 15.6 | 17 | 12 | 22

Row | SMILES | IC50 (U-87 MG) [µM] | IC50 (HeLa) [µM] | half-life at 2000 µM [2] [h] | IC50 (Caco-2) [µM] | Stability [3] | half-life at 2000 µM [6] [h] | IC50 (T47D) [µM] | t1/2 [7] [h] | IC50 (U-118-MG) [µM] | IC50 (T98G) [µM] | IC50 (MRC5) [µM] | selectivity ratio [1] | selectivity ratio [4] | selectivity ratio [5]
20 | O=c1[nH]c(=O)n([C@H]2C[C@H](O)[C@@H](COP(=O)(O)Oc3ccccc3)O2)cc1F | 33.7 | 15.2 | 28 | 26.6 | Stable | 52.3 | 13.4 | – | 14.6 | 32.2 | 36.7 | 3 | 1 | 1
21 | O=c1[nH]c(=O)n([C@H]2C[C@H](O)[C@@H](COP(=O)(O)Oc3cccnc3)O2)cc1F | 39.8 | 0.7 | 16.7 | 3.39 | Stable | 19.9 | 9.35 | – | 27.5 | 1.2 | 8.5 | < 1 | 7 | < 1
